Assay results taken from ChEMBL document CHEMBL2029326, “Alstiphyllanines I-O, ajmaline type alkaloids from Alstonia macrophylla showing vasorelaxant activity” (Bioorg Med Chem, 2012).
Activity calls are given as the source filed them. No cut-off for these calls is given here.

Experiments:
Format in all cases: functional, tissue-based
[1] = tested on: Aorta; test: Vasorelaxant activity in Wistar rat endothelium-intact thoracic aortic ring assessed as inhibition of phenylephrine-induced contraction at 30 uM measured after 60 mins
[2] = tested on: Aorta; test: Vasorelaxant activity in Wistar rat endothelium-intact thoracic aortic ring assessed as inhibition of phenylephrine-induced contraction at 30 uM measured within 5 to 15 mins
[3] = tested on: Aorta; test: Vasorelaxant activity in Wistar rat phenylephrine-prestimulated endothelium-denuded thoracic aortic ring assessed as inhibition of CaCl2-induced contraction added before PE-stimulation
[4] = tested on: Aorta; test: Vasorelaxant activity in Wistar rat endothelium-denuded thoracic aortic ring assessed as inhibition of KCl-induced contraction at 30 uM pretreated for 30 mins measured after 60 mins
[5] = tested on: Aorta; test: Vasorelaxant activity in Wistar rat endothelium-intact thoracic aortic ring assessed as inhibition of phenylephrine-induced contraction at 100 uM measured after 60 mins
[6] = tested on: Aorta; test: Vasorelaxant activity in Wistar rat endothelium-denuded thoracic aortic ring assessed as inhibition of phenylephrine-induced contraction measured after 60 mins in presence of 100 uM L-NMMA
[7] = tested on: Aorta; test: Vasorelaxant activity in Wistar rat endothelium-denuded thoracic aortic ring assessed as inhibition of phenylephrine-induced contraction measured after 60 mins in presence of Bkca inhibitor TEA pretreated for 30 mins before contraction
[8] = tested on: Aorta; test: Vasorelaxant activity in Wistar rat endothelium-denuded thoracic aortic ring assessed as inhibition of phenylephrine-induced contraction measured after 60 mins

## C/C=C1/CN2[C@H]3C[C@@]45c6ccccc6N(C(=O)c6cc(OC)c(OC)c(OC)c6)[C@@H]4[C@@H]2C[C@@H]1C3(C(=O)OC)[C@H]5O (some centres undefined)
[1]
  Activity: Active

## C/C=C1\CN2[C@H]3C[C@@]45c6ccccc6N(C(=O)c6cc(OC)c(OC)c(OC)c6)[C@@H]4[C@@H]2C[C@@H]1C3(C(=O)OC)[C@H]5O (some centres undefined)
[1]
  Activity: Active

## C/C=C1\C[N+]2([O-])[C@H]3C[C@@H]1[C@]1(C(=O)OC)[C@@H](OC(C)=O)[C@]4(C[C@@H]12)c1ccccc1N(C)[C@H]34
[1]
  Activity: Active

## C/C=C1\CN2[C@H]3C[C@@]45c6ccccc6N(C(=O)c6ccc(OC)c(OC)c6)[C@@H]4[C@@H]2C[C@@H]1C3(C(=O)OC)[C@H]5O (some centres undefined)
[1]
  Activity: Active

## C/C=C1\CN2[C@H]3C[C@@]45c6ccccc6N(C)[C@@H]4[C@@H]2C[C@@H]1[C@@]3(C(=O)OC)C5O (some centres undefined)
[1]
  Activity: Active

## C/C=C1\CN2[C@H]3C[C@@]45c6ccccc6N(C)[C@@H]4[C@@H]2C[C@@H]1[C@@]3(C(=O)OC)C5OC(=O)c1cc(OC)c(OC)c(OC)c1 (some centres undefined)
[1]
  Activity: Active

## C/C=C1\CN2[C@H]3C[C@@]45c6ccccc6N(C)[C@@H]4[C@@H]2C[C@@H]1[C@@]3(C(=O)OC)C5OC(C)=O (some centres undefined)
[2]
  Activity: Active
[1]
  Activity: Active
[3]
  Activity: Active
[4]
  Activity: Active
[5]
  Activity: Active
[6]
  Activity: inactive
[7]
  Activity: Dose-dependent effect
[8]
  Activity: Active

## C/C=C1\CN2[C@H]3C[C@@]45c6ccccc6N(C(=O)c6ccccc6)[C@@H]4[C@@H]2C[C@@H]1C3(C(=O)OC)[C@H]5O (some centres undefined)
[1]
  Activity: Active

## C/C=C1\CN2[C@H]3C[C@@]45c6ccccc6N(C)[C@@H]4[C@@H]2C[C@@H]1[C@@]3(C(=O)OC)C5OC(=O)c1ccc(OC)c(OC)c1 (some centres undefined)
[1]
  Activity: Active

## C/C=C1\CN2[C@H]3C[C@@]45c6ccccc6N(C(=O)c6ccc(OC)c(OC)c6)[C@@H]4[C@@H]2C[C@@H]1C3(C(=O)OC)[C@H]5OC(C)=O (relative stereo)
[1]
  Activity: Active

## C/C=C1\CN2[C@H]3C[C@@]45c6ccccc6N(C(=O)c6cc(OC)c(OC)c(OC)c6)[C@@H]4[C@@H]2C[C@@H]1C3(C(=O)OC)[C@H]5OC(C)=O (some centres undefined)
[1]
  Activity: Active

## C/C=C1\C[N+]2([O-])[C@H]3C[C@@H]1[C@@]1(C(=O)OC)C(O)[C@]4(C[C@@H]12)c1ccccc1N(C)[C@H]34 (some centres undefined)
[1]
  Activity: Active
